Test results taken from patent US20070048812A1, “Cell-based luminogenic and nonluminogenic proteasome assays” (priority 2005, published 2007).
Marks after values point to notes of the source that are not given here. *1 amine or outer side, *2 acyl side, *3 side chain or, on linkers, in order; H or OH if unused. Where no end group is shown, it is not given here. [ ]: non-standard residue; d: D form. The star is where a group is joined. aminoluciferin = O=C(O)[C@H]1CSC(c2nc3ccc(N*)cc3s2)=N1; AFC = O=c1cc(C(F)(F)F)c2ccc(N*)cc2o1; AMC = Cc1cc(=O)oc2cc(N*)ccc12; Suc = O=C(CCC(=O)[*:2])[*:1]; code Z = not defined here; Cbz = O=C(OCc1ccccc1)*

Legend:
[1] = test system: untreated viable HL-60 or Jurkat cells; assay: Protease retention: substrate cleavage in untreated viable cells; format: cell-based; design: key: None denotes no statistical activity above control population.; (+) to (+++++) denotes the range of activity above control population from modest to robust; (+) to (+++++) denotes the range of activity above control population from modest to robust; (+) to (+++++) denotes the range of activity above control population from modest to robust; (+) to (+++++) denotes the range of activity above control population from modest to robust; (+) to (+++++) denotes the range of activity above control population from modest to robust; details: proteolytic activity on substrate in untreated viable HL-60 or Jurkat cells, above control population; 15-30 min 37° C.
Experimental: (§1) All substrates were solubilized in DMSO from 10 to 100 mM depending upon inherent solubility. Fluorescent substrates were diluted to 100 μM to 1 mM in 10 mM Hepes, pH 7.5 or matched cell culture medium with 10% serum and added in 1/10th volumes to lysed (freeze fractured, sonicated, or detergent) or untreated viable cells in white-walled, clear bottomed 96-well plates. HL-60 or Jurkat were used in the experimentation interchangeably because of their easily manipulated suspension phenotype. Plates were incubated for 15-30 minutes at 37° C. prior to measuring fluorescence by the CytoFluor II.
(§2) Luminescent substrates were added to a luciferin detection cake (Promega V859A) resuspended in 2 ml 10 mM Hepes, pH 7.5 to 500 μM. ⅕^th volume of the proluminescent reaction mixes were added to lysed (freeze fractured, sonicated, or detergent) or untreated viable cells in white-walled, clear bottomed 96-well plates. Again, HL-60 or Jurkat were used in the experimentation interchangeably. Plates were incubated at 37° C. in a MeCour' circulating heat block controlled by a Caron 2050 W exchange unit. Luminescence was measured between 15 and 30 minutes (signal steady state).
(§3) A broad variety of proteolytic substrates were examined in an effort to characterize potential substrate preferences for protease release or retention in compromised or viable cells (see Table 3). […] Non-blocked substrates (H- and the like) were examined to include the contribution of aminopeptidase activities. From this panel, at least three proteolytic profiles emerged: an aminopeptidase-like activity preferring unblocked Ala-Ala-Phe tripeptide, a proteosomal (chymotrypsin-like) activity measured by release of blocked Leu-Leu-Val-Tyr (SEQ ID NO:1) peptides, and an exceedingly labile activity by Gly-Phe, Gly-Ala, Phe-, Tyr- or Gly-Gly-Leu substrates. The latter activities were only measurable in viable, intact cells. Of further significance is that several fluorophores or proluminescent labels can be used to detect these activities, ultimately allowing for enhanced downstream multiplexing flexibility.

[2] = test system: lysed HL-60 or Jurkat cells; assay: Protease release: substrate cleavage in lysed (compromised) cells; format: cell-based; design: key: None denotes no statistical activity above control population.; (+) to (+++++) denotes the range of activity above control population from modest to robust; (+) to (+++++) denotes the range of activity above control population from modest to robust; (+) to (+++++) denotes the range of activity above control population from modest to robust; (+) to (+++++) denotes the range of activity above control population from modest to robust; (+) to (+++++) denotes the range of activity above control population from modest to robust; details: proteolytic activity on substrate in lysed (freeze fractured, sonicated or detergent) HL-60 or Jurkat cells, above control population; 15-30 min 37° C.
Experimental: as §1, §2, §3

SK-MEL-28 cells = assay: Multiplexed protease retention (Gly-Phe-AFC) and Caspase-Glo 3/7 assay; format: cell-based; details: serial dilutions, 5 hours
Experimental: (§4) SK-MEL-28 or ACHN cells were seeded into white-walled, clear bottomed 96 well plates at a density of 10,000 cells per well in 100 μl volumes and allowed to attach at 37° C. in 5% CO2 for a period of 2 hours. After attachment, 50 μl of medium was carefully removed and replaced with serial dilutions of either ionomycin or staurosporine in MEM+10% FBS. Medium only served as control. The plate was incubated for an additional 5 hours. A 1 mM solution of Gly-Phe-AFC was made in MEM and added to the wells in a 1/10th volume. Resulting fluorescence was measured using a CytoFluor II. Caspase-Glo™ 3/7 reagent was then added and luminescence measure using a BMG FLUOstar Optima.

ACHN cells = assay: as above; format: cell-based; details: serial dilutions, 5 hours
Experimental: as §4

[3] = test system: proteasome or luciferase activity in HL-60 cells; assay: Screen of cell membrane permeabilization reagents in cell-based luminescent proteasome reaction; details: 25,000 HL-60 cells, detergent 0.05 and 0.1% final, 22° C., LLVY-aminoluciferin
Experimental: FIGS. 10A-C. Screen for cell membrane permeabilization reagents suitable to detect proteasomes in a cell-based luminescent reaction.
Other permeabilizing agents were screened for those suitable to detect proteasome activity in a cell-based assay (FIGS. 10A-C). Reagents containing low concentrations of various detergents (0.05 and 0.1% final) were prepared. 100 μl/well samples containing 25,000 HL-60 cells in complete medium were added to a 96-well plate and equilibrated at 37° C. The plate and reagents were cooled to 22° C. and an equal volume of reagent was added to each sample. The plate was shaken for 1 minute, then incubated at 22° C. Luminescence was then determined over time.

[4] = test system: proteasome activity in HL-60 cells; assay: Cell-based luminescent proteasome assay in HL-60 cells; details: 1.5 hour treatment (FIG. 2B)

Compound	Retention [1]	Release [2]	further results
Ac-Ala-Ala-Tyr-{AMC}	None	None	
Ser-Tyr-{AFC}	None	None	
H-[dA]-Leu-Lys-{AMC}	None	None	
H-Gly-Phe-{AMC}	++	None	
CN[C@@H]1C[C@H]2O[C@@](C)([C@@H]1OC)n1c3ccccc3c3c4c(c5c6ccccc6n2c5c31)C(=O)NC4 [staurosporine]			cytotoxicity profile (protease retention viability and caspase 3/7 activity) (SK-MEL-28 cells): caspase activation (and therefore apoptosis induction) is evident; cytotoxicity profile (protease retention viability and caspase 3/7 activity) (ACHN cells): apoptotic profile
Z-Leu-Leu-Val-Tyr-aminoluciferin ({code Z}-LLVY-aminoluciferin; reading uncertain; also: printed as Z-Leu-Leu-Val-Tyr-aminoluciferin) [Z-Leu-Leu-Val-Tyr-Aluc]	None	++	
Tween®-20			effect on proteasome or luciferase activity [3]: negative effects
Ala-Ala-Phe-{AMC}	None	++++	
C[C@H](CCC(=O)O)C[C@H](C)C[C@H](C)C(=O)/C=C(\O)[C@H](C)C[C@H](C)C/C=C/[C@@H](C)[C@@H](O)[C@@H](C)[C@@H](O)C[C@@H]1CC[C@@](C)([C@H]2CC[C@@](C)([C@@H](C)O)O2)O1 [ionomycin]			cytotoxicity profile (protease retention viability and caspase 3/7 activity) (SK-MEL-28 cells): necrotic-type profile
Tergitol® NP-9			effect on proteasome or luciferase activity [3]: did not substantially effect
Ala-Ala-Phe-aminoluciferin	None	++++	
H-Pro-Phe-Arg-{AMC}	None	None	
Cbz-Phe-Arg-{AMC}	None^1	None	
Z-Leu-Arg-Gly-Gly-AMC (LRGG; Z N-terminal, AMC C-terminal)	None	None	
(Gly-Phe)2-R110 [(Gly-Phe)2 R110]	None	None	
Cc1cc(=O)oc2cc(NC(=O)[C@@H](N)Cc3ccc(O)cc3)ccc12 [H-Tyr-AMC]	++	None	
Triton X-100			effect on proteasome or luciferase activity [3]: did not substantially effect

Compound	Retention [1]	Release [2]	further results
Suc-Arg-Pro-Phe-His-Leu-Leu-Val-Tyr-AMC (Suc-RPFHLLVY-{AMC}; SMILES Cc1cc(=O)oc2cc(NC(=O)[C@H](Cc3ccc(O)cc3)NC(=O)[C@@H](NC(=O)[C@H](CC(C)C)NC(=O)[C@H](CC(C)C)NC(=O)[C@H](Cc3c[nH]cn3)NC(=O)[C@H](Cc3ccccc3)NC(=O)[C@@H]3CCCN3C(=O)[C@H](CCCNC(=N)N)NC(=O)CCC(=O)O)C(C)C)ccc12) [S-R-P-F-H-L-L-V-Y-AMC]	None	None	
Suc-Leu-Leu-Val-Tyr-AMC (Suc-LLVY-{AMC}; SMILES Cc1cc(=O)oc2cc(NC(=O)[C@H](Cc3ccc(O)cc3)NC(=O)[C@@H](NC(=O)[C@H](CC(C)C)NC(=O)[C@H](CC(C)C)NC(=O)CCC(=O)O)C(C)C)ccc12)	None	+	
Z-Phe-Arg-aminoluciferin [Z-Phe-Arg-Aluc]	None	None	
CCCC[C@@H](C=O)NC(=O)[C@H](CC(C)C)NC(=O)OCc1ccccc1 [Calpeptin, calpeptin]			effect on proteasome activity [4]: minimal effect
Cbz-Gly-Ala-Met-{AMC}	None	None	
CCCCCCCCCCCCOS(=O)(=O)[O-].[Na+] [SDS]			effect on proteasome or luciferase activity [3]: negative effects
Suc-Ala-Ala-Phe-{AMC}	None	None	
Z-Leu-Arg-aminoluciferin [Z-Leu-Arg-Aluc]	None	None	
Cbz-Gly-Gly-Leu-{AMC}	++*	None	
C[C@H](CCC(=O)NCCC[N+](C)(C)CCCS(=O)(=O)[O-])[C@H]1CC[C@H]2[C@@H]3[C@H](O)C[C@@H]4C[C@H](O)CC[C@]4(C)[C@H]3C[C@H](O)[C@]12C [CHAPS]			effect on proteasome or luciferase activity [3]: negative effects
Z-Arg-Leu-Arg-Gly-Gly-AMC (RLRGG; Z N-terminal, AMC C-terminal)	None	None	
H-Gly-Ala-{AMC}	++	None	
Glutyl-Ala-Ala-Phe-AMC [Gluty-Ala-Ala-Phe-AMC]	None	None	
Gly-Phe-{AFC}	++++	None	
H-Gly-Gly-{AMC}	None	None	
(Ala-Ala-Phe)2-R110 [(Ala-Ala-Phe) 2 R110]	None	++++	
Cc1cc(=O)oc2cc(NC(=O)[C@@H](N)Cc3ccccc3)ccc12 [H-Phe-AMC]	+++	None	
